Read-outs that look alike come from different tables or passages of the source. Peptide text beside a SMILES is read from it.
Experiments:
[1] = target: T1, PSD-95 PDZ1 (Homo sapiens, UniProt P78352); assay: FP competition assay, PSD-95 PDZ1 (probe Cy5-KIF1Bα); type: binding
T1 construct: PSD-95 PDZ1 (aa 61–151); made in house; host or cells: E. coli One Shot BL21 Star (DE3)
Protocol: (§4) FP measurements were performed in black, flat bottom 384-well NBS microplates (Corning) on a Synergy H4 microplatereader (BioTek Instruments) equipped with a 620/40 nm excitation filter, a 680/30 nm emission filter, and a 660 nm dichroic mirror. Polarization values were corrected with blank samples and samples with fluorescent probe alone. At least 10 data points were measured for each curve, and each data point was measured in triplicate. […] All FP measurements were performed in a buffer containing 10 mM HEPES pH 7.4, 150 mM NaCl, and 1% BSA and incubated at least 15 min at room temperature before reading. The signal was stable for more than an hour, showing that the reaction was at equilibrium.
(§5) For the competition binding curves, probe was mixed with a constant concentration of PDZ protein corresponding to the K d and a twofold dilution series of unlabeled peptide in a total volume of 30 µl. The baseline was determined using a sample containing only probe. The IC50 was determined by fitting to a 1∶1 binding model: Y = Ymax − Ymax × X/(X+IC50). The K i was calculated from the IC50 and from the K d for the interaction between the PDZ protein and the probe as described previously [38].

[2] = target: T1, PSD-95 PDZ1; assay: SPR steady-state binding to immobilized PSD-95 PDZ1
Description: (§1) To confirm the affinities measured by FP using an orthogonal method and to get information about the kinetics of the GPCR–PDZ interactions, we used SPR. This label-free, surface sensitive technique measures the binding of a ligand to an immobilized protein as a function of time based on refractive index changes.
(§2) For each of the PSD-95 PDZ domains, we determined the K d and the stability of the complexes for selected GPCR C-tail peptides. The residence time τ ( = 1/k d) was used as a convenient measure of the stability of the complexes. […] The K d determined from the steady-state responses of a range of C-tail peptide concentrations (Figure 2B and Table S4) correlated well with the K i values obtained by FP (Figure S1).
(§3) A Biacore X100 (GE Healthcare) SPR instrument equilibrated to 25.0°C and equipped with a Sensor Chip CM5 (for PDZ1 and PDZ2) or CM4 (for PDZ3) (GE Healthcare) was used for the SPR measurements. The running buffer was HBS-EP+ (10 mM HEPES pH 7.4, 150 mM NaCl, 3 mM EDTA, 0.05% Surfactant P-20 (GE Healthcare)).
PDZ domains were immobilized by amine coupling at a flow rate of 5 µl/min on a surface activated by a 7 min injection of a 1∶1 mixture of 0.4 M 1-ethyl-3-(3-dimethylaminopropyl) carbodiimide (EDC) and 0.1 M N-hydroxysuccinimide (NHS). The remaining active groups were deactivated by a 7 min injection of 1 M ethanolamine HCl pH 8.5. 750 RU PDZ1, 780 RU PDZ2, and 410 RU PDZ3 were immobilized.
GPCR C-tail peptide samples were injected in increasing concentrations for 1 min with 1 min dissociation time at 30 µl/min. Reproducibility was tested by injecting the 20 µM sample again after the highest concentration sample. The binding curves were corrected by subtraction of buffer blanks and the response from a reference surface that was activated with EDC and NHS and deactivated with ethanolamine like the surface with immobilized PDZ domain. For peptides with a cysteine, 1 mM dithiothreitol (DTT) was added to the samples. Steady-state response curves were plotted from the responses 10 s before injection end. The K d was determined by fitting steady-state response curves to a 1∶1 binding model with a linear component to corrrect for low affinity binding, probably resulting from the immobilization: Y = Ymax × X/(X+K d)+B × X.

[3] = target: T2, PSD-95 PDZ2 (Homo sapiens, UniProt P78352); assay: FP competition assay, PSD-95 PDZ2 (probe Cy5-GluN2B); type: binding; details: read-out: K i PDZ2
T2 construct: PDZ2 (aa 155–249); made in house; host or cells: E. coli One Shot BL21 Star (DE3)
Protocol: as §4, §5

[4] = target: T3, PSD-95 PDZ3 (Homo sapiens, UniProt P78352); assay: FP competition assay, PSD-95 PDZ3 (probe Cy5-CRIPT); type: binding; details: read-out: K i PDZ3
T3 construct: made in house; host or cells: E. coli One Shot BL21 Star (DE3)
Protocol: We used a competition set-up, where a constant concentration of isolated PSD-95 PDZ domain and a labeled reference ligand was titrated with unlabeled peptides from the GPCR C-tail library, typically within a 1–512 µM concentration range, and the resulting curves were fitted to obtain the IC50, which was used to calculate the K i (Figure 1). Three Cy5-labeled peptides with well-documented interactions with PSD-95 were used as reference ligands for the competition assay: Cy5-KIF1Bα was used for PDZ1 [20], Cy5-GluN2B (formerly known as NR2B) was used for PDZ2 and PDZ1-2 [21], and Cy5-CRIPT was used for PDZ3 [22] (Table S1). Competition with unlabeled versions of the reference ligands was used to validate the FP assay by comparison with the literature (Table S2).
FP measurements were performed in black, flat bottom 384-well NBS microplates (Corning) on a Synergy H4 microplatereader (BioTek Instruments) equipped with a 620/40 nm excitation filter, a 680/30 nm emission filter, and a 660 nm dichroic mirror. Polarization values were corrected with blank samples and samples with fluorescent probe alone. At least 10 data points were measured for each curve, and each data point was measured in triplicate. 25 nM Cy5-labeled probe was used for each assay: Cy5-KIF1Bα for PDZ1, Cy5-GluN2B for PDZ2 and PDZ1-2, and Cy5-CRIPT for PDZ3. All FP measurements were performed in a buffer containing 10 mM HEPES pH 7.4, 150 mM NaCl, and 1% BSA and incubated at least 15 min at room temperature before reading. The signal was stable for more than an hour, showing that the reaction was at equilibrium.
Saturation binding curves were used to determine the functionality of the PDZ domains by comparison with literature values and to calculate K i values from competition curves. Saturation binding curves were performed by mixing probe with a twofold dilution series of PDZ protein in a total volume of 30 µl. The K d was determined by fitting to a 1∶1 binding model: Y = Ymax × X/(X+K d).
For the competition binding curves, probe was mixed with a constant concentration of PDZ protein corresponding to the K d and a twofold dilution series of unlabeled peptide in a total volume of 30 µl. The baseline was determined using a sample containing only probe. The IC50 was determined by fitting to a 1∶1 binding model: Y = Ymax − Ymax × X/(X+IC50). The K i was calculated from the IC50 and from the K d for the interaction between the PDZ protein and the probe as described previously.

[5] = target: T2, PSD-95 PDZ2; assay: SPR steady-state binding to immobilized PSD-95 PDZ2
Description: as §1, §2
as §3, with “Healthcare)). […]” for “Healthcare)).”
GPCR C-tail peptide samples were injected in increasing concentrations for 1 min with 1 min dissociation time at 30 µl/min. […] The K d was determined by fitting steady-state response curves to a 1∶1 binding model with a linear component to corrrect for low affinity binding, probably resulting from the immobilization: Y = Ymax × X/(X+K d)+B × X.

[6] = 25 nM Cy5-KIF1Bα, 10 mM HEPES pH 7.4, 150 mM NaCl, 1% BSA, room temperature, mean Ki ± SEM from two or more independent experiments, read-out: K i PDZ1
[7] = 25 nM Cy5-KIF1Bα, 10 mM HEPES pH 7.4, 150 mM NaCl, 1% BSA, room temperature, at least 15 min, Ki ± fitting error, read-out: K i PDZ1
[8] = receptors binding to PDZ1 but not to PDZ2, read-out: K i PDZ1

Ki [1, 6] [µM] | Kd [2] [µM] | Ki [3] [µM] | Ki [4] [µM] | Kd [5] [µM] | Ki [1, 7] [µM] | Ki [1, 8] [µM] | SMILES
100 ± 0.1 | 160 ± 12 | 26 ± 0.4 | 370 ± 40 | – | – | – | CC[C@H](C)[C@H](NC(=O)[C@H](CCCNC(=N)N)NC(=O)[C@H](CCC(=O)O)NC(=O)[C@H](CO)NC(=O)[C@@H](NC(=O)[C@@H](NC(=O)[C@H](CO)NC(=O)[C@H](CCCNC(=N)N)NC(=O)[C@H](CC(=O)O)NC(=O)[C@H](CC(=O)O)NC(=O)[C@@H](N)Cc1ccc(O)cc1)C(C)C)C(C)C)C(=O)N[C@@H](CO)C(=O)N[C@@H](CO)C(=O)N[C@H](C(=O)O)C(C)C [5-HTR2C] (H-YDDRSVVSERISSV-OH)
63 ± 6.3 | 120 ± 3.8 | 29 ± 1.9 | 790 ± 93 | – | – | – | CC[C@H](C)[C@H](NC(=O)[C@H](CC(=O)O)NC(=O)[C@H](CCC(N)=O)NC(=O)[C@H](CCCNC(=N)N)NC(=O)[C@H](CC(=O)O)NC(=O)[C@H](CC(=O)O)NC(=O)[C@@H](N)Cc1ccc(O)cc1)C(=O)N[C@H](C(=O)N[C@@H](CC(=O)O)C(=O)N[C@@H](CC(C)C)C(=O)N[C@@H](CCC(N)=O)C(=O)N[C@H](C(=O)N[C@@H](CCC(=O)O)C(=O)N[C@H](C(=O)O)C(C)C)[C@@H](C)O)[C@@H](C)CC [BAI1] (H-YDDRQDIIDLQTEV-OH)
50 ± 3.2 | – | 28 ± 2 | 200 ± 34 | 76 ± 1.5 | – | – | CC[C@H](C)[C@H](NC(=O)[C@H](CCCNC(=N)N)NC(=O)[C@H](CO)NC(=O)[C@@H](NC(=O)[C@H](CS)NC(=O)[C@@H](NC(=O)CNC(=O)[C@H](CCCNC(=N)N)NC(=O)[C@H](CC(=O)O)NC(=O)[C@H](CC(=O)O)NC(=O)[C@@H](N)Cc1ccc(O)cc1)[C@@H](C)O)[C@@H](C)O)C(=O)N[C@H](C(=O)N[C@H](C(=O)N[C@@H](CC(C)C)C(=O)O)[C@@H](C)O)[C@@H](C)O [SSTR1 Human] (H-YDDRGTCTSRITTL-OH)
– | 270 ± 9.1 | 90 ± 14 | > 1000 | – | 270 ± 35 | – | CC[C@H](C)[C@H](NC(=O)[C@H](CCCNC(=N)N)NC(=O)[C@H](CO)NC(=O)[C@H](C)NC(=O)[C@H](CS)NC(=O)[C@@H](NC(=O)CNC(=O)[C@H](CCCNC(=N)N)NC(=O)[C@H](CC(=O)O)NC(=O)[C@H](CC(=O)O)NC(=O)[C@@H](N)Cc1ccc(O)cc1)[C@@H](C)O)C(=O)N[C@@H](CO)C(=O)N[C@H](C(=O)N[C@@H](CC(C)C)C(=O)O)[C@@H](C)O [SSTR1 Mouse] (H-YDDRGTCASRISTL-OH)
– | – | 450 ± 58 | 600 ± 67 | – | 750 ± 80 | – | CC[C@H](C)[C@H](NC(=O)[C@H](CCCNC(=N)N)NC(=O)[C@H](CCCNC(=N)N)NC(=O)[C@H](CC(=O)O)NC(=O)[C@H](CC(=O)O)NC(=O)[C@@H](N)Cc1ccc(O)cc1)C(=O)N1CCC[C@H]1C(=O)N[C@@H](CC(C)C)C(=O)N[C@H](C(=O)N[C@@H](CCCNC(=N)N)C(=O)N[C@H](C(=O)N[C@H](C(=O)N[C@H](C(=O)N[C@@H](Cc1ccccc1)C(=O)O)[C@@H](C)O)[C@@H](C)O)[C@@H](C)O)[C@@H](C)O [SSTR4 Human] (H-YDDRRIPLTRTTTF-OH)
– | – | 420 ± 52 | > 1000 | – | > 1000 | – | CC(C)[C@H](NC(=O)[C@H](CCC(N)=O)NC(=O)[C@H](CCCNC(=N)N)NC(=O)[C@H](CC(=O)O)NC(=O)[C@H](CC(=O)O)NC(=O)[C@@H](N)Cc1ccc(O)cc1)C(=O)N1CCC[C@H]1C(=O)N[C@@H](Cc1ccccc1)C(=O)N[C@H](C(=O)N[C@@H](CCCCN)C(=O)N[C@H](C(=O)N[C@H](C(=O)N[C@H](C(=O)N[C@@H](Cc1ccccc1)C(=O)O)[C@@H](C)O)[C@@H](C)O)[C@@H](C)O)[C@@H](C)O [SSTR4 Mouse] (H-YDDRQVPFTKTTTF-OH)
– | – | 230 ± 14 | > 1000 | – | 270 ± 22 | – | CC(C)[C@H](NC(=O)[C@H](CC(N)=O)NC(=O)[C@@H](NC(=O)[C@H](C)NC(=O)[C@H](CCC(=O)O)NC(=O)[C@@H](NC(=O)[C@H](Cc1ccccc1)NC(=O)[C@H](CO)NC(=O)[C@H](CC(=O)O)NC(=O)[C@H](CC(N)=O)NC(=O)[C@H](CCCNC(=N)N)NC(=O)[C@H](CC(=O)O)NC(=O)[C@H](CC(=O)O)NC(=O)[C@@H](N)Cc1ccc(O)cc1)[C@@H](C)O)[C@@H](C)O)C(=O)O [Y2] (H-YDDRNDSFTEATNV-OH)
– | – | > 1000 | > 1000 | – | – | > 600 | CC(C)C[C@H](NC(=O)[C@@H](NC(=O)[C@H](CO)NC(=O)[C@H](CO)NC(=O)[C@H](CO)NC(=O)[C@H](CCC(N)=O)NC(=O)[C@H](CCCCN)NC(=O)[C@H](Cc1ccc(O)cc1)NC(=O)[C@H](CC(=O)O)NC(=O)[C@H](CCCNC(=N)N)NC(=O)[C@H](CCCNC(=N)N)NC(=O)[C@H](CC(=O)O)NC(=O)[C@@H](N)CC(=O)O)[C@@H](C)O)C(=O)O [mGlu1(a)] (H-DDRRDYKQSSSTL-OH)
– | – | > 1000 | > 1000 | – | 610 ± 51 | > 600 | CC[C@H](C)[C@H](NC(=O)[C@@H](NC(=O)[C@H](CC(C)C)NC(=O)[C@H](CC(N)=O)NC(=O)[C@H](CC(N)=O)NC(=O)[C@H](Cc1ccc(O)cc1)NC(=O)[C@H](CO)NC(=O)[C@@H](NC(=O)[C@H](Cc1ccc(O)cc1)NC(=O)[C@H](CCCCN)NC(=O)[C@H](CCCNC(=N)N)NC(=O)[C@H](CC(=O)O)NC(=O)[C@@H](N)CC(=O)O)C(C)C)C(C)C)C(=O)O [mGlu7(a)] (H-DDRKYVSYNNLVI-OH)
– | – | 120 ± 20 | 360 ± 82 | – | 430 ± 47 | – | CC(C)[C@H](NC(=O)[C@H](CCCCN)NC(=O)[C@H](CO)NC(=O)[C@H](CCC(=O)O)NC(=O)[C@H](CO)NC(=O)[C@H](C)NC(=O)[C@H](Cc1ccccc1)NC(=O)CNC(=O)[C@@H]1CCCN1C(=O)[C@H](CCCNC(=N)N)NC(=O)[C@H](CCCNC(=N)N)NC(=O)[C@H](CC(=O)O)NC(=O)[C@H](CC(=O)O)NC(=O)[C@@H](N)Cc1ccc(O)cc1)C(=O)O [β1AR] (H-YDDRRPGFASESKV-OH)

Source: article PMC3653948, “PDZ Domain-Mediated Interactions of G Protein-Coupled Receptors with Postsynaptic Density Protein 95: Quantitative Characterization of Interactions” (PLoS ONE, 2013)
